Test results reported in patent US20150105252A1, “SUBSTITUTED PYRAZOLES AS HERBICIDES” (E I DU PONT DE NEMOURS AND COMPANY, priority 2013, published 2015).

Assays:
corn [1] = experiment: Test A preemergence; assay type: in vivo, Zea mays
Method in brief: (§1)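 Seeds were sown in a loam soil–sand blend and given a directed soil spray preemergence; postemergence plants at 2–10 cm, one- to two-leaf stage, were sprayed with compound in non-phytotoxic solvent with surfactant. After about 10 days in a greenhouse, injury was visually rated against untreated controls (0 = no effect, 100 = complete control).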

corn [2] = experiment: Test A postemergence; assay type: in vivo, Zea mays
Method in brief: as §1

ducksalad = experiment: Test B flood; assay type: in vivo, Heteranthera limosa; conditions: 250 g ai/ha, visual rating on 0 to 100 scale (0 no effect, 100 complete control), 13 to 15 days
Method in brief: (§2)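 Each compound is applied to the floodwater of pots holding 2-leaf seedlings, water standing 3 cm over the soil throughout. Plants stay in a greenhouse 13 to 15 days before visual scoring against controls from 0 (no effect) to 100 (complete control).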

pigweed [3] = experiment: Test A preemergence; assay type: in vivo, Amaranthus retroflexus
Method in brief: as §1

rice = experiment: Test B flood; assay type: in vivo, Oryza sativa; conditions: 250 g ai/ha, visual rating on 0 to 100 scale (0 no effect, 100 complete control), 13 to 15 days
Method in brief: as §2

wheat [4] = experiment: Test A postemergence; assay type: in vivo, Triticum aestivum
Method in brief: as §1

wheat [5] = experiment: Test A preemergence; assay type: in vivo, Triticum aestivum; conditions: preemergence
Method in brief: as §1

foxtail, giant [6] = experiment: Test A postemergence; assay type: in vivo, Setaria faberii
Method in brief: as §1

crabgrass, large [7] = experiment: Test A preemergence; assay type: in vivo, Digitaria sanguinalis
Method in brief: as §1

pigweed [8] = experiment: Test A postemergence; assay type: in vivo, Amaranthus retroflexus
Method in brief: as §1

barnyardgrass [9] = experiment: Test B flood; assay type: in vivo, Echinochloa crus-galli; conditions: 250 g ai/ha, visual rating on 0 to 100 scale (0 no effect, 100 complete control), 13 to 15 days
Method in brief: as §2

velvetleaf [10] = experiment: Test A preemergence; assay type: in vivo, Abutilon theophrasti
Method in brief: as §1

barnyardgrass [11] = experiment: Test A preemergence; assay type: in vivo, Echinochloa crus-galli
Method in brief: as §1

morningglory [12] = experiment: Test A postemergence; assay type: in vivo, Ipomoea spp.
Method in brief: as §1

velvetleaf [13] = experiment: Test A postemergence; assay type: in vivo, Abutilon theophrasti
Method in brief: as §1

foxtail, giant [14] = experiment: Test A preemergence; assay type: in vivo, Setaria faberii
Method in brief: as §1

morningglory [15] = experiment: Test A preemergence; assay type: in vivo, Ipomoea spp.
Method in brief: as §1

barnyardgrass [16] = experiment: Test A postemergence; assay type: in vivo, Echinochloa crus-galli
Method in brief: as §1

crabgrass, large [17] = experiment: Test A postemergence; assay type: in vivo, Digitaria sanguinalis
Method in brief: as §1

sedge, umbrella = experiment: Test B flood; assay type: in vivo, Cyperus difformis; conditions: 250 g ai/ha, visual rating on 0 to 100 scale (0 no effect, 100 complete control), 13 to 15 days
Method in brief: as §2

[18] = preemergence, 125 g ai/ha, visual injury approx. 10 days after treatment
[19] = preemergence, 500 g ai/ha, visual injury after approx. 10 days, 0 to 100 scale (0 no effect, 100 complete control)
[20] = Postemergence, 500 g ai/ha, 0 to 100 scale (0 no effect, 100 complete control)
[21] = postemergence, 125 g ai/ha, about 10 days, visual rating on 0 to 100 scale (0 no effect, 100 complete control)
[22] = 500 g ai/ha, visual injury after approx. 10 days, 0 to 100 scale (0 no effect, 100 complete control)
[23] = Preemergence, 500 g ai/ha, 0 to 100 scale, 0 no effect, 100 complete control
[24] = preemergence, 125 g ai/ha, visual injury, 0 to 100 scale, approx. 10 days
[25] = Postemergence, 500 g ai/ha, visual rating after approx. 10 days, 0 to 100 scale (0 no effect, 100 complete control)

CCCCNC(=O)c1cc(I)n(Cc2cccc(C(F)(F)F)c2)n1 [Compound 182]
Corn plant response rating (0 to 100 scale) (corn [1]; [18]): 0
Corn plant response rating (corn [1]; [19]): 0
Corn plant response rating (corn [2]; [20]): 20
Corn plant response rating (corn [2]; [21]): 0
Plant response rating, Ducksalad (ducksalad): 0
Pigweed plant response rating (0 to 100 scale) (pigweed [3]; [18]): 0
Pigweed plant response rating (pigweed [3]; [19]): 30
Plant response rating, Rice (rice): 0
Wheat plant response rating (wheat [4]; [20]): 0
Wheat plant response rating (0 to 100 scale) (wheat [5]; 125 g ai/ha, visual injury approx. 10 days after treatment): 0
Wheat plant response rating (wheat [5]; [22]): 0
Foxtail, Giant plant response rating (foxtail, giant [6]; [20]): 20
Foxtail, Giant plant response rating (foxtail, giant [6]; [21]): 0
Crabgrass, Large plant response rating (0 to 100 scale) (crabgrass, large [7]; [18]): 0
Crabgrass, Large plant response rating (crabgrass, large [7]; [19]): 60
Pigweed plant response rating (pigweed [8]; [20]): 90
Plant response rating, Barnyardgrass (barnyardgrass [9]): 0
Velvetleaf plant response rating (0 to 100 scale) (velvetleaf [10]; [18]): 0
Velvetleaf plant response rating (velvetleaf [10]; [19]): 0
Barnyardgrass plant response rating (0 to 100 scale, 0 is no effect, 100 is complete control) (barnyardgrass [11]; [18]): 0
Barnyardgrass plant response rating (barnyardgrass [11]; [19]): 0
Morningglory plant response rating (morningglory [12]; [20]): 30
Velvetleaf plant response rating (velvetleaf [13]; [20]): 70
Foxtail, Giant plant response rating (0 to 100 scale) (foxtail, giant [14]; [18]): 0
Foxtail, Giant plant response rating (foxtail, giant [14]; [19]): 50
Morningglory plant response rating (0 to 100 scale) (morningglory [15]; [18]): 0
Morningglory plant response rating (morningglory [15]; [19]): 0
Barnyardgrass plant response rating (barnyardgrass [16]; [20]): 30
Barnyardgrass plant response rating (barnyardgrass [16]; [21]): 20
Crabgrass, Large plant response rating (crabgrass, large [17]; [20]): 30
Crabgrass, Large plant response rating (crabgrass, large [17]; [21]): 10
Plant response rating, Sedge, Umbrella (sedge, umbrella): 0

CCCCNC(=O)c1cc(C)n(Oc2ccnc(C(F)(F)F)c2)n1 [Compound 85]
Corn plant response rating (corn [1]; [23]): 0
Corn plant response rating (corn [1]; [24]): 0
Corn plant response rating (corn [2]; [25]): 10
Corn plant response rating (corn [2]; [21]): 0
Plant response rating, Ducksalad (ducksalad): 0
Pigweed plant response rating (pigweed [3]; [23]): 0
Pigweed plant response rating (pigweed [3]; [24]): 0
Plant response rating, Rice (rice): 0
Wheat plant response rating (wheat [4]; [25]): 0
Wheat plant response rating (wheat [4]; [21]): 0
Wheat plant response rating (wheat [5]; 125 g ai/ha, visual injury, 0 to 100 scale, approx. 10 days): 0
Wheat plant response rating (wheat [5]; [22]): 0
Foxtail, Giant plant response rating (foxtail, giant [6]; [25]): 20
Foxtail, Giant plant response rating (foxtail, giant [6]; [21]): 0
Crabgrass, Large plant response rating (crabgrass, large [7]; [23]): 80
Crabgrass, Large plant response rating (crabgrass, large [7]; [24]): 20
Pigweed plant response rating (pigweed [8]; [25]): 10
Pigweed plant response rating (pigweed [8]; [21]): 0
Plant response rating, Barnyardgrass (barnyardgrass [9]): 0
Velvetleaf plant response rating (velvetleaf [10]; [23]): 0
Velvetleaf plant response rating (velvetleaf [10]; [24]): 0
Barnyardgrass plant response rating (barnyardgrass [11]; [23]): 30
Barnyardgrass plant response rating (barnyardgrass [11]; [24]): 0
Morningglory plant response rating (morningglory [12]; [25]): 40
Morningglory plant response rating (morningglory [12]; [21]): 10
Velvetleaf plant response rating (velvetleaf [13]; [25]): 10
Velvetleaf plant response rating (velvetleaf [13]; [21]): 0
Foxtail, Giant plant response rating (foxtail, giant [14]; [23]): 50
Foxtail, Giant plant response rating (foxtail, giant [14]; [24]): 0
Morningglory plant response rating (morningglory [15]; [23]): 10
Morningglory plant response rating (morningglory [15]; [24]): 0
Barnyardgrass plant response rating (barnyardgrass [16]; Postemergence, 125 g ai/ha, 0 to 100 scale, 0 no effect, 100 complete control): 0
Barnyardgrass plant response rating (barnyardgrass [16]; [25]): 10
Crabgrass, Large plant response rating (crabgrass, large [17]; [25]): 20
Crabgrass, Large plant response rating (crabgrass, large [17]; [21]): 10
Plant response rating, Sedge, Umbrella (sedge, umbrella): 0
